Key:
sGC α1/β1 heterodimer = sGC α1/β1 heterodimer (Homo sapiens (Human), UniProt Q02108+Q02153); test: Cell-based sGC functional assay (cyclic GMP assay for sGC activator: CASA assay); conditions: CHO-K1/sGC cells; for Emax: CHO-K1, activity expressed as percentage of compound A (standard), read-out: % Activation; for EC50: inflection point, 4P fit, read-out: IP
How it was run: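 CHO-K1 cells stably expressing sGC α1/β1 were pre-incubated with or without 1 μM DETA-NO (30 min, 25 °C), then exposed to compounds for 1 hr at 37 °C with 0.5 mM IBMX. Intracellular cGMP was read by HTRF and expressed as a percentage of a reference heme-dependent activator's maximum.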

[1] = biological target: human recombinant sGC enzyme (Homo sapiens (Human), UniProt Q02108+Q02153); test: Size Exclusion Chromatography (SEC) competition binding assay using [3H] Ex-77B as the radioligand; conditions: [3H] Ex-77B radioligand, 24 hours at 37° C.
How it was run: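 Recombinant human sGC binding measured by competition against tritiated Ex-77B radioligand, with non-specific binding defined by 1 μM unlabeled Ex-77B.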

With `Cc1cccc(Cn2nc(-c3nc(N)c4c(n3)NC(=O)[C@@]4(C)c3ccc(CCC(=O)O)cc3)c3ccc(Cl)cc32)c1` [Example 66B, (S)-3-(4-{4-amino-2-[6-chloro-1-(3-methylbenzyl)-1H-indazol-3-yl]-5-methyl-6-oxo-6,7-dihydro-5H-pyrrolo[2,3-d]pyrimidin-5-yl}phenyl)propanoic acid] the Emax (sGC α1/β1 heterodimer) was 107%, the EC50 (sGC α1/β1 heterodimer) was 238 nM and the Ki [1] was 0.495 nM.
In the case of `Cc1ccc(Cn2nc(-c3nc(N)c4c(n3)NC(=O)[C@@]4(C)c3ccc(CCC(=O)O)cc3)c3ccc(Cl)cc32)cc1` [Example 67B, (S)-3-(4-{4-amino-2-[6-chloro-1-(4-methylbenzyl)-1H-indazol-3-yl]-5-methyl-6-oxo-6,7-dihydro-5H-pyrrolo[2,3-d]pyrimidin-5-yl}phenyl)propanoic acid], the Emax (sGC α1/β1 heterodimer) is reported as 115%, the EC50 (sGC α1/β1 heterodimer) is reported as 384 nM and the Ki [1] is reported as 0.154 nM.
Molecule `Cc1ccccc1Cn1nc(-c2nc(N)c3c(n2)NC(=O)[C@@]3(C)c2ccc(CCC(=O)O)cc2)c2ccc(Cl)cc21` [Example 68B, (S)-3-(4-{4-amino-2-[6-chloro-1-(2-methylbenzyl)-1H-indazol-3-yl]-5-methyl-6-oxo-6,7-dihydro-5H-pyrrolo[2,3-d]pyrimidin-5-yl}phenyl)propanoic acid] has an Emax (sGC α1/β1 heterodimer) of 109%, an EC50 (sGC α1/β1 heterodimer) of 568 nM and a Ki [1] of 3.1 nM.
With `C[C@@]1(c2ccc(CCC(=O)O)cc2)C(=O)Nc2nc(-c3nn(Cc4cccc(F)c4)c4cc(Cl)ccc34)nc(N)c21` [Example 69B, (S)-3-(4-{4-amino-2-[6-chloro-1-(3-fluorobenzyl)-1H-indazol-3-yl]-5-methyl-6-oxo-6,7-dihydro-5H-pyrrolo[2,3-d]pyrimidin-5-yl}phenyl)propanoic acid] the Emax (sGC α1/β1 heterodimer) was 139%, the EC50 (sGC α1/β1 heterodimer) was 289 nM and the Ki [1] was 0.101 nM.
`Cc1nc([C@]2(C)C(=O)Nc3nc(-c4nn(CCC(F)(F)C(F)(F)F)c5ncccc45)nc(N)c32)sc1CC(=O)O` [Example 83B, (S)-(2-{4-amino-5-methyl-6-oxo-2-[1-(3,3,4,4,4-pentafluorobutyl)-1H-pyrazolo[3,4-b]pyridin-3-yl]-6,7-dihydro-5H-pyrrolo[2,3-d]pyrimidin-5-yl}-4-methyl-1,3-thiazol-5-yl)acetic acid] gave an Emax (sGC α1/β1 heterodimer) of 80%, an EC50 (sGC α1/β1 heterodimer) of 1420 nM and a Ki [1] of 1.74 nM.
Work on `CC(C)(Cc1csc(C2(C)C(=O)Nc3nc(-c4nn(CCC(F)(F)F)c5ncc(F)cc45)nc(N)c32)n1)C(=O)O` (stereo not drawn) [Example 85A, 3-(2-{4-amino-2-[5-fluoro-1-(3,3,3-trifluoropropyl)-1H-pyrazolo[3,4-b]pyridin-3-yl]-5-methyl-6-oxo-6,7-dihydro-5H-pyrrolo[2,3-d]pyrimidin-5-yl}-1,3-thiazol-4-yl)-2,2-dimethylpropanoic acid] yielded an Emax (sGC α1/β1 heterodimer) of 130%, an EC50 (sGC α1/β1 heterodimer) of 700 nM and a Ki [1] of 1.5 nM.
With `CC(C)(Cc1csc([C@]2(C)C(=O)Nc3nc(-c4nn(CCCC(F)(F)F)c5ncccc45)nc(N)c32)n1)C(=O)O` [Example 87B, (S)-3-(2-{4-amino-5-methyl-6-oxo-2-[1-(4,4,4-trifluorobutyl)-1H-pyrazolo[3,4-b]pyridin-3-yl]-6,7-dihydro-5H-pyrrolo[2,3-d]pyrimidin-5-yl}-1,3-thiazol-4-yl)-2,2-dimethylpropanoic acid] the Emax (sGC α1/β1 heterodimer) was 97%, the EC50 (sGC α1/β1 heterodimer) was 547 nM and the Ki [1] was 0.785 nM.
With `C[C@@]1(c2nc(CCC(=O)O)cs2)C(=O)Nc2nc(-c3nn(CCCC(F)(F)F)c4ncccc34)nc(N)c21` [Example 88B, (S)-3-(2-{4-amino-5-methyl-6-oxo-2-[1-(4,4,4-trifluorobutyl)-1H-pyrazolo[3,4-b]pyridin-3-yl]-6,7-dihydro-5H-pyrrolo[2,3-d]pyrimidin-5-yl}-1,3-thiazol-4-yl)propanoic acid] the Emax (sGC α1/β1 heterodimer) was 88%, the EC50 (sGC α1/β1 heterodimer) was 1250 nM and the Ki [1] was 0.848 nM.
